Laboratory results as given in patent publication US20240228488A1 (TAKEDA PHARMACEUTICAL COMPANY LIMITED, priority 2021, published 2024).

Target: human activated kallikrein enzyme (Homo sapiens, UniProt P03952)
Assay: Plasma kallikrein inhibition, fluorogenic PFR-AMC substrate, 500 pM activated kallikrein format
Assay type: biochemical
Conditions: 500 pM activated kallikrein, 300 uM PFR-AMC, 30 min preincubation, 10 min reaction; read-out: Primary Dose Response Assay: Average EC50
Summary of the method: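 Fluorogenic readout (ex 380 / em 460 nm) after 10 min room-temperature reaction with 300 uM Pro-Phe-Arg-AMC substrate, following 30 min preincubation of inhibitors with 500 pM enzyme. Buffer: Tris pH 7.5, EDTA, NaCl, PEG-400, Triton X-100. Values given as EC50 ranges.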

human activated kallikrein enzyme, sequence (P03952 391-638 limits assumed): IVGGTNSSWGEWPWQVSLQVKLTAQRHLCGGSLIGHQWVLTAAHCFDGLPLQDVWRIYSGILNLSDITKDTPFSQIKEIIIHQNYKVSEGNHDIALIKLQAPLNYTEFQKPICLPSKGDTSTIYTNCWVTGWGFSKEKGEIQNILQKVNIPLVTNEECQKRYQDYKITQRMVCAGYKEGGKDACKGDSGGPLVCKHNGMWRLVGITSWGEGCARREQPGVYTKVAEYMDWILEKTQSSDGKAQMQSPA
human activated kallikrein enzyme, sequence (P03952 20-390 partner limits assumed): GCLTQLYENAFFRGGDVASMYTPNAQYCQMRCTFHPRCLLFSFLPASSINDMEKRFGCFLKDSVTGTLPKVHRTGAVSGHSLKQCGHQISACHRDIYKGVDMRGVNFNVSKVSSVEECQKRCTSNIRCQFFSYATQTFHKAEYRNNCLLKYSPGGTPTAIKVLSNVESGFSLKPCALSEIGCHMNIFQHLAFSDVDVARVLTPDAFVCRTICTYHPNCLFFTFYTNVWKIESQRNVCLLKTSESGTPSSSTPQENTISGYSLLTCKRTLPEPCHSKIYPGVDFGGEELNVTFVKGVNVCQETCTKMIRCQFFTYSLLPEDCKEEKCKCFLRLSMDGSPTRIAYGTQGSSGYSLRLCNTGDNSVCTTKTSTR

Cc1ccnc([C@H]2C[C@@H]2C(=O)Nc2cc(N[C@@H](C)c3cn4cc(C(F)F)cc(N5CC(=O)N(C)C5=O)c4n3)ncn2)n1 [Example 416, (1S,2S)-N-(6-(((S)-1-(6-(difluoromethyl)-8-(3-methyl-2,4-dioxoimidazolidin-1-yl)imidazo[1,2-a]pyridin-2-yl)ethyl)amino)pyrimidin-4-yl)-2-(4-methylpyrimidin-2-yl)cyclopropane-1-carboxamide]
EC50: 10 to 100 nM

Cc1ccnc([C@H]2C[C@@H]2C(=O)Nc2cc(N[C@H](C)c3cn4cc(C(F)F)cc(N5CC(=O)N(C)C5=O)c4n3)ncn2)n1 [Example 417, (1S,2S)-N-(6-(((R)-1-(6-(difluoromethyl)-8-(3-methyl-2,4-dioxoimidazolidin-1-yl)imidazo[1,2-a]pyridin-2-yl)ethyl)amino)pyrimidin-4-yl)-2-(4-methylpyrimidin-2-yl)cyclopropane-1-carboxamide]
EC50: < 1 nM

CCc1cc(N2CC(=O)N(C)C2=O)c2nc([C@@H](C)Nc3cc(NC(=O)[C@H]4C[C@@H]4c4nccc(C)n4)ncn3)cn2c1 [Example 419, (1S,2S)-N-(6-(((R)-1-(6-ethyl-8-(3-methyl-2,4-dioxoimidazolidin-1-yl)imidazo[1,2-a]pyridin-2-yl)ethyl)amino)pyrimidin-4-yl)-2-(4-methylpyrimidin-2-yl)cyclopropane-1-carboxamide]
EC50: < 1 nM

Cc1ccnc([C@H]2C[C@@H]2C(=O)Nc2cc(N[C@H](C)c3cn4cc(C5CC5)cc(N5C(=O)N(C)C(=O)C56COC6)c4n3)ncn2)n1 [Example 420, (1S,2S)-N-(6-(((R)-1-(6-cyclopropyl-8-(7-methyl-6,8-dioxo-2-oxa-5,7-diazaspiro[3.4]octan-5-yl)imidazo[1,2-a]pyridin-2-yl)ethyl)amino)pyrimidin-4-yl)-2-(4-methylpyrimidin-2-yl)cyclopropane-1-carboxamide]
EC50: < 1 nM

Cc1ccnc([C@H]2C[C@@H]2C(=O)Nc2cc(N[C@H](C)c3cn4cc(Cl)cc(N5CC(=O)N(C)C5=O)c4n3)ncn2)n1 [Example 421, (1S,2S)-N-(6-(((R)-1-(6-chloro-8-(3-methyl-2,4-dioxoimidazolidin-1-yl)imidazo[1,2-a]pyridin-2-yl)ethyl)amino)pyrimidin-4-yl)-2-(4-methylpyrimidin-2-yl)cyclopropane-1-carboxamide]
EC50: < 1 nM

Cc1ccnc([C@H]2C[C@@H]2C(=O)Nc2cc(N[C@H](C)c3cn4cc(C5CC5)cc(N=S(C)(C)=O)c4n3)ncn2)n1 [Example 422, (1S,2S)-N-(6-(((R)-1-(6-cyclopropyl-8-((dimethyl(oxo)-16-sulfaneylidene)amino)imidazo[1,2-a]pyridin-2-yl)ethyl)amino)pyrimidin-4-yl)-2-(4-methylpyrimidin-2-yl)cyclopropane-1-carboxamide]
EC50: < 1 nM

CCC(=O)O[C@H]1C[C@H](c2cn3cc(C4CC4)cc(N4CC(=O)N(C)C4=O)c3n2)N(c2cc(NC(=O)[C@H]3C[C@@H]3c3nccc(C)n3)ncn2)C1 [Example 425, (3S,5R)-5-(6-cyclopropyl-8-(3-methyl-2,4-dioxoimidazolidin-1-yl)imidazo[1,2-a]pyridin-2-yl)-1-(6-((1S,2S)-2-(4-methylpyrimidin-2-yl)cyclopropane-1-carboxamido)pyrimidin-4-yl)pyrrolidin-3-yl propionate]
EC50: 10 to 100 nM

Cc1ccnc([C@H]2C[C@@H]2C(=O)Nc2cc(N3CC(C)(O)C[C@@H]3c3cn4cc(C5CC5)ccc4n3)ncn2)n1 (stereo partly drawn) [Example 426, (1S,2S)-N-(6-((2R)-2-(6-cyclopropylimidazo[1,2-a]pyridin-2-yl)-4-hydroxy-4-methylpyrrolidin-1-yl)pyrimidin-4-yl)-2-(4-methylpyrimidin-2-yl)cyclopropane-1-carboxamide]
EC50: 10 to 100 nM

Cc1ccnc([C@H]2C[C@@H]2C(=O)Nc2cc(N[C@@H](C)c3cn4cc(C(F)F)cc(N5CC(=O)N(C)C5=O)c4n3)nc(C)n2)n1 [Example 427, (1S,2S)-N-(6-(((S)-1-(6-(difluoromethyl)-8-(3-methyl-2,4-dioxoimidazolidin-1-yl)imidazo[1,2-a]pyridin-2-yl)ethyl)amino)-2-methylpyrimidin-4-yl)-2-(4-methylpyrimidin-2-yl)cyclopropane-1-carboxamide]
EC50: 10 to 100 nM

Cc1ccnc([C@H]2C[C@@H]2C(=O)Nc2cc(N[C@H](C)c3cn4cc(C(F)F)cc(N5CC(=O)N(C)C5=O)c4n3)nc(C)n2)n1 [Example 428, (1S,2S)-N-(6-(((R)-1-(6-(difluoromethyl)-8-(3-methyl-2,4-dioxoimidazolidin-1-yl)imidazo[1,2-a]pyridin-2-yl)ethyl)amino)-2-methylpyrimidin-4-yl)-2-(4-methylpyrimidin-2-yl)cyclopropane-1-carboxamide]
EC50: < 1 nM

CCc1cc(N2CC(=O)N(C)C2=O)c2nc([C@@H](C)Nc3cc(NC(=O)[C@H]4C[C@@H]4c4nccc(C)n4)nc(C)n3)cn2c1 [Example 429, (1S,2S)-N-(6-(((R)-1-(6-ethyl-8-(3-methyl-2,4-dioxoimidazolidin-1-yl)imidazo[1,2-a]pyridin-2-yl)ethyl)amino)-2-methylpyrimidin-4-yl)-2-(4-methylpyrimidin-2-yl)cyclopropane-1-carboxamide]
EC50: < 1 nM

Cc1cc(N2CC3CC3C2=O)c2nc([C@@H](C)Nc3cc(NC(=O)[C@H]4C[C@@H]4c4nccc(C)n4)nc(C)n3)cn2c1 (stereo partly drawn) [Example 430, (1S,2S)-N-(2-methyl-6-(((1R)-1-(6-methyl-8-(2-oxo-3-azabicyclo[3.1.0]hexan-3-yl)imidazo[1,2-a]pyridin-2-yl)ethyl)amino)pyrimidin-4-yl)-2-(4-methylpyrimidin-2-yl)cyclopropane-1-carboxamide]
EC50: 1 to 10 nM

Cc1ccnc([C@H]2C[C@@H]2C(=O)Nc2cc(N[C@H](C)c3cn4cc(C5CC5)cc(N=S(C)(C)=O)c4n3)nc(C)n2)n1 [Example 431, (1S,2S)-N-(6-(((R)-1-(6-cyclopropyl-8-((dimethyl(oxo)-16-sulfaneylidene)amino)imidazo[1,2-a]pyridin-2-yl)ethyl)amino)-2-methylpyrimidin-4-yl)-2-(4-methylpyrimidin-2-yl)cyclopropane-1-carboxamide]
EC50: < 1 nM

Cc1ccnc([C@H]2C[C@@H]2C(=O)Nc2cc(N[C@H](C)c3cn4cc(C5CC5)cc(N5C(=O)N(C)C(=O)C5(C)C)c4n3)nc(C)n2)n1 [Example 432, (1S,2S)-N-(6-(((R)-1-(6-cyclopropyl-8-(3,5,5-trimethyl-2,4-dioxoimidazolidin-1-yl)imidazo[1,2-a]pyridin-2-yl)ethyl)amino)-2-methylpyrimidin-4-yl)-2-(4-methylpyrimidin-2-yl)cyclopropane-1-carboxamide]
EC50: < 1 nM

Cc1ccnc([C@H]2C[C@@H]2C(=O)Nc2cc(N[C@H](C)c3cn4cc(C5CC5)cc(N5CC6CC6C5=O)c4n3)nc(C)n2)n1 (stereo partly drawn) [Example 433, (1S,2S)-N-(6-(((1R)-1-(6-cyclopropyl-8-(2-oxo-3-azabicyclo[3.1.0]hexan-3-yl)imidazo[1,2-a]pyridin-2-yl)ethyl)amino)-2-methylpyrimidin-4-yl)-2-(4-methylpyrimidin-2-yl)cyclopropane-1-carboxamide]
EC50: < 1 nM

Cc1ccnc([C@H]2C[C@@H]2C(=O)Nc2cc(N[C@H](C)c3cn4cc(C5CC5)cc(N5CC6(COC6)N(C)C5=O)c4n3)nc(C)n2)n1 [Example 435, (1S,2S)-N-(6-(((R)-1-(6-cyclopropyl-8-(5-methyl-6-oxo-2-oxa-5,7-diazaspiro[3.4]octan-7-yl)imidazo[1,2-a]pyridin-2-yl)ethyl)amino)-2-methylpyrimidin-4-yl)-2-(4-methylpyrimidin-2-yl)cyclopropane-1-carboxamide]
EC50: < 1 nM

Cc1ccnc([C@H]2C[C@@H]2C(=O)Nc2cc(N[C@H](C)c3cn4cc(C5(F)CC5)cc(N5CC(=O)N(C)C5=O)c4n3)nc(C)n2)n1 [Example 436, (1S,2S)-N-(6-(((R)-1-(6-(1-fluorocyclopropyl)-8-(3-methyl-2,4-dioxoimidazolidin-1-yl)imidazo[1,2-a]pyridin-2-yl)ethyl)amino)-2-methylpyrimidin-4-yl)-2-(4-methylpyrimidin-2-yl)cyclopropane-1-carboxamide]
EC50: < 1 nM

COCc1nc(NC(=O)[C@H]2C[C@@H]2c2nccc(C)n2)cc(N[C@H](C)c2cn3cc(C)cc(N4CC(=O)N(C)C4=O)c3n2)n1 [Example 438, (1S,2S)-N-(2-(methoxymethyl)-6-(((R)-1-(6-methyl-8-(3-methyl-2,4-dioxoimidazolidin-1-yl)imidazo[1,2-a]pyridin-2-yl)ethyl)amino)pyrimidin-4-yl)-2-(4-methylpyrimidin-2-yl)cyclopropane-1-carboxamide]
EC50: < 1 nM

COCc1nc(NC(=O)[C@H]2C[C@@H]2c2nccc(C)n2)cc(N[C@H](C)c2cn3cc(C4(F)CC4)cc(N4CC(=O)N(C)C4=O)c3n2)n1 [Example 439, (1S,2S)-N-(6-(((R)-1-(6-(1-fluorocyclopropyl)-8-(3-methyl-2,4-dioxoimidazolidin-1-yl)imidazo[1,2-a]pyridin-2-yl)ethyl)amino)-2-(methoxymethyl)pyrimidin-4-yl)-2-(4-methylpyrimidin-2-yl)cyclopropane-1-carboxamide]
EC50: < 1 nM

Cc1cc(NC(=O)[C@H]2C[C@@H]2c2nccc(C)n2)nc(N[C@H](C)c2cn3cc(C4CC4)cc(N4CC(=O)N(C)C4=O)c3n2)n1 [Example 440, (1S,2S)-N-(2-(((R)-1-(6-cyclopropyl-8-(3-methyl-2,4-dioxoimidazolidin-1-yl)imidazo[1,2-a]pyridin-2-yl)ethyl)amino)-6-methylpyrimidin-4-yl)-2-(4-methylpyrimidin-2-yl)cyclopropane-1-carboxamide]
EC50: < 1 nM

Cc1ccnc([C@H]2C[C@@H]2C(=O)Nc2cc(N[C@H](C)c3cn4cc(C5CC5)cc(N5CC(=O)N(C)C5=O)c4n3)nc(N(C)C)n2)n1 [Example 441, (1S,2S)-N-(6-(((R)-1-(6-cyclopropyl-8-(3-methyl-2,4-dioxoimidazolidin-1-yl)imidazo[1,2-a]pyridin-2-yl)ethyl)amino)-2-(dimethylamino)pyrimidin-4-yl)-2-(4-methylpyrimidin-2-yl)cyclopropane-1-carboxamide]
EC50: < 1 nM
